Here are results for 1 compound from patent publication US6372728B1, “Formulation for treatment of osteoporosis” (AstraZeneca AB, priority 1997, dated 2002).

Where two headings read alike, the source gives them in different places. Where only a bound is given, the exact number is not on record here.

The test system of data set [1] is bone resorption in the TPTX rats. Particulars: TPTX rat; for decrease in blood levels of Ca2+ (FIG. 2): 0.01-5 mgP/kg. The method, then: Female Spraque-Dawley rats from Molegaards Breeding Centre, Skensved, Denmark were used in the experiments. The animals were kept three by three in Macrolon cages, with free access to standard rat food pellets and tap water during the whole experiment. TPTX (Thyroparathyroidectomy) was preformed during anaesthesia with xylazine (Rompun®, 20 mg/ml, 0.25 ml/kg, intraperitoneally (i.p.)) and ketamine (Ketalar®, 50 mg/ml, 2.0 ml/kg, i.p.). After TPTX all rats were supplemented with 4 μg/kg thyroxin subcutaneously three times a week. TPTX adequacy was checked by determination of blood levels of Ca^2+ in a blood samples obtained from the vein of the tail 5-6 days after surgery. TPTX was considered successful if blood Ca^2+ was ≦80% of the concentration found in the rats before surgery.
Bone resorption in the TPTX rats was stimulated by the arotinoid ethyl p-[(E)-2-(5,6,7,8-tetrahydro-5,5,8,8-tetramethyl-2-naphtyl)penyl]-benzoate (RO 13-6298, a gift from Hoffman-La Roche AG, Basel, Switzerland). RO 13-6298 was administered subcutaneously once daily (100 μg/kg in 1 ml/kg solved in polyethylene glycol 300 containing 10% ethanol) for three consecutive days (days 1, 2 and 3), day 1 being five to six days after TPTX.

For data set [2] the following is noted: taken either concurrently with or 2 hours after breakfast; cited from earlier work.

In the case of `NCCCC(O)(P(=O)(O)O)P(=O)(O)O` [alendronate, 4-amino-1-hydroxybutylidene-1,1-biphosphonic acid], in data set [1] (24 hours after the third oral dose, 1 mgP/kg, dissolved in saline (0.9% NaCl), free access to food), the “decrease of blood levels of Ca2+ compared to rats treated with only saline” value is reported as “no significant decrease”. For the same compound, the “decrease in blood levels of Ca2+ (FIG. 2)” value in data set [1] (saline i.v.) and in data set [1] (saline p.o.) was “dose-dependent decrease” each time. Also, the impairment of availability in data set [2] is over 85%.
